# Results taken from patent US11324728B2, “Dosing regimens for the treatment of fungal infections” (Seren Pharmaceuticals Inc., priority 2017, dated 2022).
# Test system: onychomycosis of the toenail
# Experiment: Phase II clinical study: changes over time in efficacy of the target nail (turbidity area ratio, clinical cure, relapse/reinfection)
# Type: in vivo, human
# Settings: for Clinical cure (no visual sign of infection) / Clinical cure rate and 95% CI / Remaining of the visual sign of infection: target nail; for Clinical cure (no visual sign of infection) / Clinical cure rate and 95% CI / Remaining of the visual sign of infection / turbidity area ratio regarding the target nail, Mean / turbidity area ratio regarding the target nail, Median: PPS
# Protocol: A Phase II clinical pharmacology study was conducted in subjects with onychomycosis of the toenail. The study investigated the pharmacokinetics, efficacy and safety of three different dosing regimens of fosravuconazole. […] The three treatment groups were as follows: • a.
# The efficacy endpoints were: (1) overall clinical efficacy; (2) changes over time in efficacy; (3) confirmation of elements of dermatophytes by direct microscopy; and (4) results of identification of dermatophytes by the polymerase chain reaction (PCR) method.
smiles,measurement,setting,value
"C[C@@H](c1nc(-c2ccc(C#N)cc2)cs1)[C@@](Cn1cncn1)(OCOP(=O)(O)O)c1ccc(F)cc1F [fosravuconazole, 4-[2-[(1R,2R)-2-(2,4-difluorophenyl)-1-methyl-2-[(phosphonooxy)methoxy]-3-(1H-1,2,4-triazol-1-yl)propyl]-4-thiazolyl]benzo-nitrile]",relapse/reinfection,100 mg (once daily dose) group,no subject
same,Clinical cure (no visual sign of infection),"100 mg group, Week 48",11
same,Clinical cure rate and 95% CI,"100 mg group, Week 48","44.0 (24.5, 65.0) %"
same,Remaining of the visual sign of infection,"100 mg group, Week 48",14
same,"turbidity area ratio regarding the target nail, Mean","100 mg, Start day of treatment",76.9%
same,"turbidity area ratio regarding the target nail, Median","100 mg, Start day of treatment",75.5%
same,"turbidity area ratio regarding the target nail, Mean","100 mg, Week 4",72.9%
same,"turbidity area ratio regarding the target nail, Median","100 mg, Week 4",72.0%
same,"turbidity area ratio regarding the target nail, Mean","100 mg, Week 8",65.9%
same,"turbidity area ratio regarding the target nail, Median","100 mg, Week 8",67.0%
same,"turbidity area ratio regarding the target nail, Mean","100 mg, Week 12",55.6%
same,"turbidity area ratio regarding the target nail, Median","100 mg, Week 12",56.0%
same,"turbidity area ratio regarding the target nail, Mean","100 mg, Week 16",44.2%
same,"turbidity area ratio regarding the target nail, Median","100 mg, Week 16",46.0%
same,"turbidity area ratio regarding the target nail, Mean","100 mg, Week 20",34.6%
same,"turbidity area ratio regarding the target nail, Median","100 mg, Week 20",36.0%
same,"turbidity area ratio regarding the target nail, Mean","100 mg, Week 24",26.5%
same,"turbidity area ratio regarding the target nail, Median","100 mg, Week 24",25.0%
same,"turbidity area ratio regarding the target nail, Mean","100 mg, Week 28",19.4%
same,"turbidity area ratio regarding the target nail, Median","100 mg, Week 28",18.0%
same,"turbidity area ratio regarding the target nail, Mean","100 mg, Week 32",14.4%
same,"turbidity area ratio regarding the target nail, Median","100 mg, Week 32",15.0%
same,"turbidity area ratio regarding the target nail, Mean","100 mg, Week 36",12.0%
same,"turbidity area ratio regarding the target nail, Median","100 mg, Week 36",9.0%
same,"turbidity area ratio regarding the target nail, Mean","100 mg, Week 40",9.6%
same,"turbidity area ratio regarding the target nail, Median","100 mg, Week 40",12.0%
same,"turbidity area ratio regarding the target nail, Mean","100 mg, Week 44",8.6%
same,"turbidity area ratio regarding the target nail, Median","100 mg, Week 44",8.0%
same,"turbidity area ratio regarding the target nail, Mean","100 mg, Week 48",9.3%
same,"turbidity area ratio regarding the target nail, Median","100 mg, Week 48",6.0%
same,relapse/reinfection,200 mg (pulse treatment) group,4 subjects
same,Clinical cure (no visual sign of infection),"200 mg group, Week 48",7
same,Clinical cure rate and 95% CI,"200 mg group, Week 48","31.8 (13.9, 54.8) %"
same,Remaining of the visual sign of infection,"200 mg group, Week 48",15
same,"turbidity area ratio regarding the target nail, Mean","200 mg, Start day of treatment",76.4%
same,"turbidity area ratio regarding the target nail, Median","200 mg, Start day of treatment",74.0%
same,"turbidity area ratio regarding the target nail, Mean","200 mg, Week 4",69.6%
same,"turbidity area ratio regarding the target nail, Median","200 mg, Week 4",70.0%
same,"turbidity area ratio regarding the target nail, Mean","200 mg, Week 8",59.8%
same,"turbidity area ratio regarding the target nail, Median","200 mg, Week 8",58.5%
same,"turbidity area ratio regarding the target nail, Mean","200 mg, Week 12",51.4%
same,"turbidity area ratio regarding the target nail, Median","200 mg, Week 12",49.0%
same,"turbidity area ratio regarding the target nail, Mean","200 mg, Week 16",45.0%
same,"turbidity area ratio regarding the target nail, Median","200 mg, Week 16",45.0%
same,"turbidity area ratio regarding the target nail, Mean","200 mg, Week 20",35.8%
same,"turbidity area ratio regarding the target nail, Median","200 mg, Week 20",34.0%
same,"turbidity area ratio regarding the target nail, Mean","200 mg, Week 24",27.9%
same,"turbidity area ratio regarding the target nail, Median","200 mg, Week 24",25.0%
same,"turbidity area ratio regarding the target nail, Mean","200 mg, Week 28",23.3%
same,"turbidity area ratio regarding the target nail, Median","200 mg, Week 28",18.0%
same,"turbidity area ratio regarding the target nail, Mean","200 mg, Week 32",20.0%
same,"turbidity area ratio regarding the target nail, Median","200 mg, Week 32",9.0%
same,"turbidity area ratio regarding the target nail, Mean","200 mg, Week 36",18.2%
same,"turbidity area ratio regarding the target nail, Median","200 mg, Week 36",11.5%
same,"turbidity area ratio regarding the target nail, Mean","200 mg, Week 40",16.0%
same,"turbidity area ratio regarding the target nail, Median","200 mg, Week 40",10.0%
same,"turbidity area ratio regarding the target nail, Mean","200 mg, Week 44",13.5%
same,"turbidity area ratio regarding the target nail, Median","200 mg, Week 44",5.0%
same,"turbidity area ratio regarding the target nail, Mean","200 mg, Week 48",14.6%
same,"turbidity area ratio regarding the target nail, Median","200 mg, Week 48",9.0%
same,Clinical cure (no visual sign of infection),"300 mg group, Week 48",11
same,Clinical cure rate and 95% CI,"300 mg group, Week 48","40.7 (22.4, 61.2) %"
same,Remaining of the visual sign of infection,"300 mg group, Week 48",16
same,relapse/reinfection,400 mg group,1 subject
same,"turbidity area ratio regarding the target nail, Mean","400 mg, Start day of treatment",74.4%
same,"turbidity area ratio regarding the target nail, Median","400 mg, Start day of treatment",76.0%
same,"turbidity area ratio regarding the target nail, Mean","400 mg, Week 4",66.9%
same,"turbidity area ratio regarding the target nail, Median","400 mg, Week 4",67.0%
same,"turbidity area ratio regarding the target nail, Mean","400 mg, Week 8",57.4%
same,"turbidity area ratio regarding the target nail, Median","400 mg, Week 8",59.0%
same,"turbidity area ratio regarding the target nail, Mean","400 mg, Week 12",49.3%
same,"turbidity area ratio regarding the target nail, Median","400 mg, Week 12",52.0%
same,"turbidity area ratio regarding the target nail, Mean","400 mg, Week 16",40.6%
same,"turbidity area ratio regarding the target nail, Median","400 mg, Week 16",41.0%
same,"turbidity area ratio regarding the target nail, Mean","400 mg, Week 20",31.1%
same,"turbidity area ratio regarding the target nail, Median","400 mg, Week 20",29.0%
same,"turbidity area ratio regarding the target nail, Mean","400 mg, Week 24",25.7%
same,"turbidity area ratio regarding the target nail, Median","400 mg, Week 24",20.0%
same,"turbidity area ratio regarding the target nail, Mean","400 mg, Week 28",18.3%
same,"turbidity area ratio regarding the target nail, Median","400 mg, Week 28",16.0%
same,"turbidity area ratio regarding the target nail, Mean","400 mg, Week 32",14.9%
same,"turbidity area ratio regarding the target nail, Median","400 mg, Week 32",12.0%
same,"turbidity area ratio regarding the target nail, Mean","400 mg, Week 36",13.5%
same,"turbidity area ratio regarding the target nail, Median","400 mg, Week 36",9.0%
same,"turbidity area ratio regarding the target nail, Mean","400 mg, Week 40",11.8%
same,"turbidity area ratio regarding the target nail, Median","400 mg, Week 40",6.0%
same,"turbidity area ratio regarding the target nail, Mean","400 mg, Week 44",11.9%
same,"turbidity area ratio regarding the target nail, Median","400 mg, Week 44",6.0%
same,"turbidity area ratio regarding the target nail, Mean","400 mg, Week 48",12.7%
same,"turbidity area ratio regarding the target nail, Median","400 mg, Week 48",8.0%
